The record followed here is patent US6372799B1, “Non-sedating diphenhydramine metabolites” (Bridge Pharma, Inc., priority 1998, dated 2002).

This series concerns physostigmine-induced lethality in mice. Kind of series: Sedative effects in vivo, physostigmine-induced lethality test. The settings on record: result in words, figures not given. On the procedure:
The physostigmine-induced lethality test is being used in the present studies. This test is a modification of the sedation test technique reported by VILLANI et al., in U.S. Pat. No. 4,659,716. In short, physostigmine (1.9 mg/kg s.c.) produces 90-100% lethality when given to grouped mice with 10 animals in each plastic cage (approx. 11×26×13 cm). Mice administered a sedating agent, such as for example a sedative antihistamine prior to physostigmine are protected and survive. In the present study, test compounds are administered orally 60 minutes prior to physostigmine. The number of survivors is counted 30 minutes after physostigmine administration.

As for `CN(C)CCOC(c1ccccc1)c1ccccc1` [diphenhydramine, DIPHENHYDRAMINE], the “sedative activity / sedative side effects” value is listed as “profound sedative side effects”.
